From patent US6482850B2, “Hydrolysis-promoting hydrophobic taxane derivatives” (priority 1995, dated 2002)

What was measured:
[1] = tested on: human MCF-7 breast carcinoma cells; assay: HTD cytotoxicity, growth inhibition of MCF-7 cells (Table 1); type: cell-based; details: MCF-7, 72-hour incubation; ± standard deviation
[2] = tested on: A-549 human lung carcinoma; assay: In vitro sensitivity, sulforhodamine B cytotoxicity assay, A-549 (Table 2); type: cell-based; details: 72-hour incubation; averaged from two separate experiments
Protocol: Briefly, 96-well microtiter plates were inoculated (100 μL/well) with 5×10^3 (A549) or 7.5×10^3 (OVCAR-3) cells/well, in RPMI-1640 supplemented with 10% FBS (growth media). The plates were incubated for 24 hr at 37° C., 100% humidity and 5% CO2. At 24 hours, growth media (100 μL) was added to designated “time zero” plates. Similarly, serial dilutions of drug or vehicle (in media) were added (100 μL aliquots) to the test and vehicle control wells at twice the predetermined highest concentration. […] Cells (including time zero plates) were then fixed with 50 μL of 50% trichloroacetic acid (TCA) (w:v) for adherent cells or 80% TCA for suspended cells, and plates refrigerated at 4° C. for 1 hr. […] The plates were then air-dried for 24 hr.

[3] = tested on: HT-29 human colon carcinoma cells; assay: In vitro sensitivity, sulforhodamine B cytotoxicity assay, HT-29 (Table 2); type: cell-based; details: 72-hour incubation; averaged from two separate experiments
[4] = tested on: MCF-7 human breast carcinoma; assay: In vitro sensitivity, sulforhodamine B cytotoxicity assay, MCF-7 (Table 2); type: cell-based; details: 72-hour incubation; averaged from two separate experiments
[5] = tested on: MCF-7/ADR (adriamycin-resistant); assay: In vitro sensitivity, sulforhodamine B cytotoxicity assay, MCF-7/ADR (Table 2); type: cell-based, human; details: 72-hour incubation; averaged from two separate experiments
CDF1 female mice = assay: Acute toxicity of liposomal paclitaxel or paclitaxel derivative given intraperitoneally; details: liposomes, i.p.
Protocol: Moreover, liposomes containing either paclitaxel or a 2′-(2-bromo) hydrophobic paclitaxel derivative (containing either a six-carbon (C-6), C-8, C-12, C-14 or C-16 acyl chain at the 2′ position) were administered, intraperitoneally in 5 doses, to SCID (severe combined inimunodeficiency) mice bearing a human ovarian cancer (OvCar 3), at a dose of 12.5 mg paclitaxel per kg or a dose of 50 mg paclitaxel derivative per kg.
CDF1 female mice, 5 or 10 mice per group, were intraperitoneally administered either paclitaxel-, 2′-C6-paclitaxel derivative-, or 2′-C16-paclitaxel derivative-containing liposomes, in a single dose, or 5 doses, of either 12.5, 25, 50, 100, 200, 300. 400 or 500 mg of paclitaxel or paclitaxel derivative per kg of mouse body weight.

Row | Structure (SMILES) | GI50 [1] [nM] | GI50 [2] [nM] | GI50 [3] [nM] | GI50 [4] [nM] | GI50 [5] [nM] | other results
1 | CC(=O)OC1C(=O)C2(C)C(OC(=O)CCCCCBr)CC3OCC3(OC(C)=O)C2C(OC(=O)c2ccccc2)C2(O)CC(OC(=O)C(O)C(NC(=O)c3ccccc3)c3ccccc3)C(C)=C1C2(C)C (centres unmarked) [7-6-Bromohexanoyl-] | 18 ± 2 | – | – | – | – | –
2 | CCCCCCCCCCC(Br)C(=O)OC(C(=O)OC1CC2(O)C(OC(=O)c3ccccc3)C3C4(OC(C)=O)COC4CC(O)C3(C)C(=O)C(OC(C)=O)C(=C1C)C2(C)C)C(NC(=O)c1ccccc1)c1ccccc1 (centres unmarked) [2′-2-Bromo-C12-Paclitaxel, 2′-(2 bromolauranoyl) paclitaxel] | – | 4.4 | 3.2 | 2.8 | > 10000 | –
3 | CCCCCC(=O)OC(C(=O)OC1CC2(O)C(OC(=O)c3ccccc3)C3C4(OC(C)=O)COC4CC(OC(=O)CCCCC)C3(C)C(=O)C(OC(C)=O)C(=C1C)C2(C)C)C(NC(=O)c1ccccc1)c1ccccc1 (centres unmarked) [2′,7-diHexanoyl-] | > 10000 | – | – | – | – | –
4 | CCCCCC(=O)OC1CC2OCC2(OC(C)=O)C2C(OC(=O)c3ccccc3)C3(O)CC(OC(=O)C(O)C(NC(=O)c4ccccc4)c4ccccc4)C(C)=C(C(OC(C)=O)C(=O)C12C)C3(C)C (centres unmarked) [7-Hexanoyl-] | 27 ± 19 | – | – | – | – | –
5 | CCCCCCC(Br)C(=O)O[C@@H](C(=O)O[C@H]1C[C@@]2(O)[C@@H](OC(=O)c3ccccc3)[C@@H]3[C@]4(OC(C)=O)CO[C@@H]4C[C@H](O)[C@@]3(C)C(=O)[C@H](OC(C)=O)C(=C1C)C2(C)C)[C@@H](NC(=O)c1ccccc1)c1ccccc1 (some centres unmarked) [2′-2-Bromo-C8-Paclitaxel, 2′-(2-bromocapryanoyl) paclitaxel] | – | 4.4 | 3.1 | 2.9 | > 10000 | –
6 | CCCCCC(=O)OC(C(=O)OC1CC2(O)C(OC(=O)c3ccccc3)C3C4(OC(C)=O)COC4CC(O)C3(C)C(=O)C(OC(C)=O)C(=C1C)C2(C)C)C(NC(=O)c1ccccc1)c1ccccc1 (centres unmarked) [2′-Hexanoyl-] | 500 ± 151 | – | – | – | – | –
7 | CCCCC(Br)C(=O)O[C@@H](C(=O)O[C@H]1C[C@@]2(O)[C@@H](OC(=O)c3ccccc3)[C@@H]3[C@]4(OC(C)=O)CO[C@@H]4C[C@H](O)[C@@]3(C)C(=O)[C@H](OC(C)=O)C(=C1C)C2(C)C)[C@@H](NC(=O)c1ccccc1)c1ccccc1 (mixture of isomers) [2′-2-Bromohexanoyl-, 2′-(R)-[(±)-2-Bromohexanoyl] taxol] | 3 ± 0.2 | 3.9 | 2.4 | 2.3 | > 10000 | number of mice that died within the first 14 days post-injection/total (CDF1 female mice; five doses of 50 mg/kg): 0/5; number of mice that died within the first 14 days post-injection/total (CDF1 female mice; single dose 200 mg/kg): 0/2; number of mice that died within the first 14 days post-injection/total (CDF1 female mice; single dose 300 mg/kg): 4/5; number of mice that died within the first 14 days post-injection/total (CDF1 female mice; single dose 400 mg/kg): 5/5; number of mice that died within the first 14 days post-injection/total (CDF1 female mice; single dose 500 mg/kg): 5/5
8 | CC(=O)OC1C(=O)C2(C)C(O)CC3OCC3(OC(C)=O)C2C(OC(=O)c2ccccc2)C2(O)CC(OC(=O)C(OC(=O)CCCCCBr)C(NC(=O)c3ccccc3)c3ccccc3)C(C)=C1C2(C)C (centres unmarked) [2′-6-Bromohexanoyl-] | > 10000 | – | – | – | – | –
9 | CCCCC(Br)C(=O)OC1CC2OCC2(OC(C)=O)C2C(OC(=O)c3ccccc3)C3(O)CC(OC(=O)C(O)C(NC(=O)c4ccccc4)c4ccccc4)C(C)=C(C(OC(C)=O)C(=O)C12C)C3(C)C (centres unmarked) [7-2-Bromohexanoyl-] | 4.6 ± 0.1 | – | – | – | – | –
10 | CCCCCC(=O)OC1CC2OCC2(OC(C)=O)C2C(OC(=O)c3ccccc3)C3(O)CC(OC(=O)C(OC(C)=O)C(NC(=O)c4ccccc4)c4ccccc4)C(C)=C(C(OC(C)=O)C(=O)C12C)C3(C)C (centres unmarked) [2′-Acetyl-7-Hexanoyl-] | 4460 ± 60 | – | – | – | – | –
11 | CCCCCCCCCCCCC(Br)C(=O)OC(C(=O)OC1CC2(O)C(OC(=O)c3ccccc3)C3C4(OC(C)=O)COC4CC(O)C3(C)C(=O)C(OC(C)=O)C(=C1C)C2(C)C)C(NC(=O)c1ccccc1)c1ccccc1 (centres unmarked) [2′-2-Bromo-C14-Paclitaxel, 2′-(2 bromomyrstanoyl) paclitaxel] | – | 31.7 | 20.6 | 16 | > 10000 | –
